Experiments:
[1] = Acute toxicity (LD50), intraperitoneal, mice (Example 6, Table 4); assay type: in vivo, 6 week old female albino mice; settings: i.p.; for Estimated LD50 dose: mice
Text: The toxicity of these mixtures (LD50) are compared with the toxicity of poly I alone and the double-stranded complex between poly I and poly C (poly I:C). The mixtures contained poly ho^5 C containing 62% ho^5 CMP and 38% br^5 CMP obtained by bromine water treatment of poly C as described in example 1. Some of this material was frozen in the absence of salt to produce a gelled material when thawed. This material was homogenised and mixed with an equal weight of poly I and then administered intraperitoneally to the mice. Some of the poly ho^5 C is kept unfrozen and mixed with poly I and then administered intraperitoneally to the mice.
Poly I:C was made up in HBS at 5mg. 8mg, 10mgs and 13mg/ml and 0.1ml
injected per mouse to give the total doses shown.
Poly I was made up in HBS at 12mg/ml and appropriate volumes administered
to give the final doses indicated.
in HBS to a total polynucleotide concentration of 12mg/ml and appropriate
volumes administered to give the final doses indicated.
No deaths occurred after 7 days (records maintained 2 months) and mean

[2] = particularly by virtue of its ability to induce interferon; cited from earlier work

Substance | Survival of mice per group ([1]; 0.5 mg total polynucleotides) | Survival of mice per group ([1]; 0.8 mg total polynucleotides) | Survival of mice per group ([1]; 1.0 mg total polynucleotides) | Survival of mice per group ([1]; 1.3 mg total polynucleotides) | Estimated LD50 dose [1] [mg/mouse] | Estimated LD50 dose ([1]; mean weight 23 g) [mg/kilogram] | anti-viral effects [2] | Survival of mice per group ([1]; 8 mg total polynucleotides) | Survival of mice per group ([1]; 12 mg total polynucleotides) | Survival of mice per group ([1]; 16 mg total polynucleotides) | Survival of mice per group ([1]; 24 mg total polynucleotides)
poly I:C | 10/10 | 8/10 | 6/10 | 0/10 | 1.1 | 48 | known to have anti-viral effects | – | – | – | –
polyinosinic acid [poly I] | – | – | – | – | 16 | 695 | – | 5/6 | 5/6 | 3/6 | 1/6

Reference: patent publication US4151350A, “Poly-5-hydroxycytidylic acid copolymers” (priority 1976, dated 1979)
